Source: ChEMBL document CHEMBL1201861, “Genomics of Drug Sensitity in Cancer screening data, Wellcome Trust Sanger Institute”
pIC50: −log10 of the molar value.

Assays:
Test in all cases: cells
[1] = test system: HTC-C3; type: functional, cell-based, Homo sapiens; conditions: Homo sapiens, HTC-C3;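 note: inhibition of cell growth, read out with a cell viability assay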
Description: SANGER: Inhibition of human HTC-C3 cell growth in a cell viability assay.

[2] = test system: AGS; type: functional, cell-based, Homo sapiens; conditions: Homo sapiens, AGS;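 note: growth inhibition of AGS cells, determined with a cell viability assay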
Description: SANGER: Inhibition of human AGS cell growth in a cell viability assay.

[3] = test system: GMS-10; type: functional, cell-based, Homo sapiens; conditions: Homo sapiens, GMS-10;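 note: growth inhibition of GMS-10 cells, read out as cell viability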
Description: SANGER: Inhibition of human GMS-10 cell growth in a cell viability assay.

[4] = test system: SW1710; type: functional, cell-based, Homo sapiens; conditions: Homo sapiens, SW1710;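 note: growth inhibition of SW1710 cells, determined with a cell viability assay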
Description: SANGER: Inhibition of human SW1710 cell growth in a cell viability assay.

[5] = test system: NCI-H358; type: functional, cell-based, Homo sapiens; conditions: Homo sapiens, NCI-H358;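 note: growth inhibition of NCI-H358 human cells, read out with a cell viability assay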
Description: SANGER: Inhibition of human NCI-H358 cell growth in a cell viability assay.

[6] = test system: COR-L105; type: functional, cell-based, Homo sapiens; conditions: Homo sapiens, COR-L105;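 note: cell growth inhibition determined with a viability assay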
Description: SANGER: Inhibition of human COR-L105 cell growth in a cell viability assay.

[7] = test system: CAL-27; type: functional, cell-based, Homo sapiens; conditions: Homo sapiens, CAL-27;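 note: Viability-based readout, IC50 reflecting inhibition of CAL-27 cell growth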
Description: SANGER: Inhibition of human CAL-27 cell growth in a cell viability assay.

[8] = test system: DOK; type: functional, cell-based, Homo sapiens; conditions: Homo sapiens, DOK;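 note: cell viability assay read-out, values reflect inhibition of cell growth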
Description: SANGER: Inhibition of human DOK cell growth in a cell viability assay.

[9] = test system: HOP-92; type: functional, cell-based, Homo sapiens; conditions: Homo sapiens, HOP-92;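 note: cell viability readout, with IC50 reflecting inhibition of HOP-92 cell growth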
Description: SANGER: Inhibition of human HOP-92 cell growth in a cell viability assay.

[10] = test system: NCI-H596; type: functional, cell-based, Homo sapiens; conditions: Homo sapiens, NCI-H596;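 note: growth inhibition of NCI-H596 cells, read out with a cell viability assay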
Description: SANGER: Inhibition of human NCI-H596 cell growth in a cell viability assay.

[11] = test system: SCC-4; type: functional, cell-based, Homo sapiens; conditions: Homo sapiens, SCC-4;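 note: growth inhibition of human SCC-4 cells, read out as cell viability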
Description: SANGER: Inhibition of human SCC-4 cell growth in a cell viability assay.

[12] = test system: YKG-1; type: functional, cell-based, Homo sapiens; conditions: Homo sapiens, YKG-1;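 note: cell growth inhibition, read out with a viability assay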
Description: SANGER: Inhibition of human YKG-1 cell growth in a cell viability assay.

[13] = test system: HuO-3N1; type: functional, cell-based, Homo sapiens; conditions: Homo sapiens, HuO-3N1;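 note: cell viability readout used to measure how strongly compounds suppress proliferation of human HuO-3N1 cells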
Description: SANGER: Inhibition of human HuO-3N1 cell growth in a cell viability assay.

[14] = test system: SW780; type: functional, cell-based, Homo sapiens; conditions: Homo sapiens, SW780;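 note: growth inhibition of the cells, read out with a cell viability assay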
Description: SANGER: Inhibition of human SW780 cell growth in a cell viability assay.

[15] = test system: NCI-H2122; type: functional, cell-based, Homo sapiens; conditions: Homo sapiens, NCI-H2122;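 note: growth inhibition of the cells, read out with a cell viability assay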
Description: SANGER: Inhibition of human NCI-H2122 cell growth in a cell viability assay.

[16] = test system: 8305C; type: functional, cell-based, Homo sapiens; conditions: Homo sapiens, 8305C
Description: SANGER: Inhibition of human 8305C cell growth in a cell viability assay.

[17] = test system: A2780; type: functional, cell-based, Homo sapiens; conditions: Homo sapiens, A2780;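 note: growth inhibition of A2780 cells, read out with a cell viability assay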
Description: SANGER: Inhibition of human A2780 cell growth in a cell viability assay.

[18] = test system: NCI-H1651; type: functional, cell-based, Homo sapiens; conditions: Homo sapiens, NCI-H1651;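 note: Read-out is a cell viability assay, with IC50 expressing inhibition of NCI-H1651 cell growth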
Description: SANGER: Inhibition of human NCI-H1651 cell growth in a cell viability assay.

[19] = test system: Hs-578T; type: functional, cell-based, Homo sapiens; conditions: Homo sapiens, Hs-578T
Description: SANGER: Inhibition of human Hs-578-T cell growth in a cell viability assay.

[20] = test system: PC-14; type: functional, cell-based, Homo sapiens; conditions: Homo sapiens, PC-14;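 note: cell viability assay measuring inhibition of PC-14 cell growth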
Description: SANGER: Inhibition of human PC-14 cell growth in a cell viability assay.

[21] = test system: NCI-H650; type: functional, cell-based, Homo sapiens; conditions: Homo sapiens, NCI-H650;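 note: growth inhibition of NCI-H650 cells, read out by a viability assay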
Description: SANGER: Inhibition of human NCI-H650 cell growth in a cell viability assay.

[22] = test system: BEN; type: functional, cell-based, Homo sapiens; conditions: Homo sapiens, BEN;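 note: growth inhibition of the BEN cell line, read out with a cell viability assay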
Description: SANGER: Inhibition of human BEN cell growth in a cell viability assay.

[23] = test system: OE33; type: functional, cell-based, Homo sapiens; conditions: Homo sapiens, OE33;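 note: growth inhibition of human OE33 cells, measured by a cell viability assay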
Description: SANGER: Inhibition of human OE33 cell growth in a cell viability assay.

[24] = test system: A-427; type: functional, cell-based, Homo sapiens; conditions: Homo sapiens, A-427;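 note: growth inhibition of human A-427 cells, read out by a cell viability assay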
Description: SANGER: Inhibition of human A427 cell growth in a cell viability assay.

[25] = test system: RPMI-7951; type: functional, cell-based, Homo sapiens; conditions: Homo sapiens, RPMI-7951
Description: SANGER: Inhibition of human RPMI-7951 cell growth in a cell viability assay.

[26] = test system: UACC-893; type: functional, cell-based, Homo sapiens; conditions: Homo sapiens, UACC-893
Description: SANGER: Inhibition of human UACC-893 cell growth in a cell viability assay.

[27] = test system: TCC-SUP; type: functional, cell-based, Homo sapiens; conditions: Homo sapiens, TCC-SUP;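 note: growth inhibition of TCC-SUP cells, read out with a cell viability assay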
Description: SANGER: Inhibition of human TCCSUP cell growth in a cell viability assay.

[28] = test system: CaR-1; type: functional, cell-based, Homo sapiens; conditions: Homo sapiens, CaR-1;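 note: growth inhibition of human CaR-1 cancer cells, read out with a cell viability assay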
Description: SANGER: Inhibition of human CaR-1 cell growth in a cell viability assay.

[29] = test system: NCI-H2030; type: functional, cell-based, Homo sapiens; conditions: Homo sapiens, NCI-H2030;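 note: growth inhibition of human NCI-H2030 cells, read out by a cell viability assay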
Description: SANGER: Inhibition of human NCI-H2030 cell growth in a cell viability assay.

[30] = test system: NCI-H1793; type: functional, cell-based, Homo sapiens; conditions: Homo sapiens, NCI-H1793;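 note: cell growth inhibition, read out by a cell viability assay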
Description: SANGER: Inhibition of human NCI-H1793 cell growth in a cell viability assay.

[31] = test system: U-118-MG; type: functional, cell-based, Homo sapiens; conditions: Homo sapiens, U-118-MG
Description: SANGER: Inhibition of human U-118-MG cell growth in a cell viability assay.

[32] = test system: CHL-1; type: functional, cell-based, Homo sapiens; conditions: Homo sapiens, CHL-1;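 note: cell growth inhibition, read out with a cell viability assay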
Description: SANGER: Inhibition of human CHL-1 cell growth in a cell viability assay.

[33] = test system: NCI-H292; type: functional, cell-based, Homo sapiens; conditions: Homo sapiens, NCI-H292;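 note: growth inhibition of NCI-H292 cells, read out with a cell viability assay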
Description: SANGER: Inhibition of human NCI-H292 cell growth in a cell viability assay.

[34] = test system: T47D; type: functional, cell-based, Homo sapiens; conditions: Homo sapiens, T47D;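 note: growth inhibition of human T47D cells, measured with a cell viability assay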
Description: SANGER: Inhibition of human T47D cell growth in a cell viability assay.

[35] = test system: NCI-H441; type: functional, cell-based, Homo sapiens; conditions: Homo sapiens, NCI-H441;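 note: growth inhibition of NCI-H441 cells, read out with a cell viability assay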
Description: SANGER: Inhibition of human NCI-H441 cell growth in a cell viability assay.

[36] = test system: COLO-679; type: functional, cell-based, Homo sapiens; conditions: Homo sapiens, COLO-679
Description: SANGER: Inhibition of human COLO-679 cell growth in a cell viability assay.

[37] = test system: A2058; type: functional, cell-based, Homo sapiens; conditions: Homo sapiens, A2058;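 note: reduction of A2058 cell growth, read out with a viability assay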
Description: SANGER: Inhibition of human A2058 cell growth in a cell viability assay.

[38] = test system: NCI-H727; type: functional, cell-based, Homo sapiens; conditions: Homo sapiens, NCI-H727;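 note: growth inhibition of human NCI-H727 cells, read out with a cell viability assay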
Description: SANGER: Inhibition of human NCI-H727 cell growth in a cell viability assay.

[39] = test system: SK-HEP1; type: functional, cell-based, Homo sapiens, SK-HEP-1; conditions: Homo sapiens, SK-HEP1;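 note: cell viability readout used to quantify reduction in proliferation of human SK-HEP-1 cells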
Description: SANGER: Inhibition of human SK-HEP-1 cell growth in a cell viability assay.

Measured: pIC50

CCN(CC)CCCCNc1ncc2cc(-c3cc(OC)cc(OC)c3)c(NC(=O)NC(C)(C)C)nc2n1 [PD-173074]
6.26: [13]
< 5.70: all other assays above

COc1cc2c(Nc3ccc(NC(=O)c4ccccc4)cc3)ncnc2cc1OCCCN1CCOCC1
5.51: [14]
5.50: [12]
5.43: [18]
5.77: [33]
5.47: [32]
< 5.40: all other assays above

CC1(C)CNc2cc(NC(=O)c3cccnc3NCc3ccncc3)ccc21 [MOTESANIB]
< 5.70: all assays above

Cn1cnc2c(F)c(Nc3ccc(Br)cc3Cl)c(C(=O)NOCCO)cc21 [SELUMETINIB]
6.18: [14]
6.67: [1]
5.64: [39]
6.47: [36]
5.51: [7]
6.83: [8]
5.50: [6]
5.95: [2] | [33]
not listed: [5] | [26] | [29] | [37]
< 5.40: all other assays above
